According to patent US4659734A, “Olinecarboxylic acid derivatives” (Nippon Shinyaku Co., Ltd., priority 1983, dated 1987):
In brackets after ≈: the same amount, converted by molar mass.

What was measured:
[1] = tested on: Bacillus subtilis ATCC 6633; experiment: Minimum growth inhibiting concentration, Japan Chemotherapeutic Society method; format: cell-based; details: ATCC6633; Bacillus subtilis ATCC 6633, Gram +; 5% horse blood added agar medium; read-out: Minimum Growth Inhibiting Concn
Procedure: (§1) The Antibacterial activity of the compounds of Examples 14, 13, 22b, 21 and 15 was determined in accordance with the method of Japan Chemotherapeutic Society (cf. Nippon Kagaku Ryoho Gakkai Shi, volume 29, number 1, pages 76 to 79, 1981) and the results are reported in Table 1, which follows. | *5% Horse blood added agar medium for sensitivity measurement being used.

[2] = tested on: Streptococcus pneumoniae Type I; experiment: as above; format: cell-based; details: Gram +, 5% horse blood added agar medium, read-out: Minimum Growth Inhibiting Concn
Procedure: as §1

[3] = tested on: Streptococcus pyogenes S-23; experiment: as above; format: cell-based; details: S23; Streptococcus pyogenes S-23, Gram +; 5% horse blood added agar medium; read-out: Minimum Growth Inhibiting Concn
Procedure: as §1

[4] = tested on: Acinetobacter calcoacelicus 54; experiment: as above; format: cell-based; details: Acinetobacter calcoacelicus 54, Gram -; read-out: Minimum Growth Inhibiting Concn
Procedure: (§2) The Antibacterial activity of the compounds of Examples 14, 13, 22b, 21 and 15 was determined in accordance with the method of Japan Chemotherapeutic Society (cf. Nippon Kagaku Ryoho Gakkai Shi, volume 29, number 1, pages 76 to 79, 1981) and the results are reported in Table 1, which follows.

[5] = tested on: Alcaligenes faecalis ATCC 8750; experiment: as above; format: cell-based; details: ATCC8750; Alcaligenes faecalis ATCC 8750, Gram -; read-out: Minimum Growth Inhibiting Concn
Procedure: as §2

[6] = tested on: Escherichia coli KC-14; experiment: as above; format: cell-based; details: KC14; Escherichia coli KC-14, Gram -; read-out: Minimum Growth Inhibiting Concn
Procedure: as §2

[7] = tested on: Escherichia coli NIHJ JC-2; experiment: as above; format: cell-based; details: NIHJJC2; Escherichia coli NIHJ JC-2, Gram -; read-out: Minimum Growth Inhibiting Concn
Procedure: as §2

[8] = tested on: Klebsiella pneumoniae K-1966; experiment: as above; format: cell-based; details: K1966; Klebsiella pneumoniae K-1966, Gram -; read-out: Minimum Growth Inhibiting Concn
Procedure: as §2

[9] = tested on: Listeria monocytogenes RIMD 1205020; experiment: as above; format: cell-based; details: RIMD1205020; Listeria monocytogenes RIMD 1205020, Gram +; read-out: Minimum Growth Inhibiting Concn
Procedure: as §2

[10] = tested on: Micrococcus luteus ATCC 9341; experiment: as above; format: cell-based; details: ATCC9341; Micrococcus luteus ATCC 9341, Gram +; read-out: Minimum Growth Inhibiting Concn
Procedure: as §2

[11] = tested on: Proteus mirabilis 181; experiment: as above; format: cell-based; details: Proteus mirabilis 181, Gram -; read-out: Minimum Growth Inhibiting Concn
Procedure: as §2

[12] = tested on: Proteus vulgaris DX-19; experiment: as above; format: cell-based; details: DX19; Proteus vulgaris DX-19, Gram -; read-out: Minimum Growth Inhibiting Concn
Procedure: as §2

[13] = tested on: Pseudomonas aeruginosa E-2; experiment: as above; format: cell-based; details: E2; Pseudomonas aeruginosa E-2, Gram -; read-out: Minimum Growth Inhibiting Concn
Procedure: as §2

[14] = tested on: Pseudomonas aeruginosa No. 12; experiment: as above; format: cell-based; details: Pseudomonas aeruginosa No. 12, Gram -; read-out: Minimum Growth Inhibiting Concn
Procedure: as §2

[15] = tested on: Pseudomonas cepacia ATCC 25416; experiment: as above; format: cell-based; details: Burkholderia cepacia, ATCC25416; Pseudomonas cepacia ATCC 25416, Gram -; read-out: Minimum Growth Inhibiting Concn
Procedure: as §2

[16] = tested on: Pseudomonas maltophilia ATCC 13637; experiment: as above; format: cell-based; details: Stenotrophomonas maltophilia, ATCC13637; Pseudomonas maltophilia ATCC 13637, Gram -; read-out: Minimum Growth Inhibiting Concn
Procedure: as §2

[17] = tested on: Serracia marcescens IFO 3736; experiment: as above; format: cell-based; details: Serracia marcescens IFO 3736, Gram -; read-out: Minimum Growth Inhibiting Concn
Procedure: as §2

[18] = tested on: Staphylococcus aureus 209-PJC; experiment: as above; format: cell-based; details: Gram +, read-out: Minimum Growth Inhibiting Concn
Procedure: as §2

[19] = tested on: Staphylococcus aureus Smith; experiment: as above; format: cell-based; details: Gram +, read-out: Minimum Growth Inhibiting Concn
Procedure: as §2

[20] = tested on: Escherichia coli KC-14; experiment: Mouse intraperitoneal infection, survival after one week; format: in vivo, ddY strain mice; details: KC14, po; Escherichia coli KC-14, 5 × 10^4 per mouse; one dose per os 2 h after infection
Procedure: (§3) ddY--Strain mice (male; body weight 20±1 grams) of SPF were innoculated with the bacteria set forth in Table 2 by administration of a supension of the bacterial in 4% mucin solution into the abdominal cavity. A compound of the invention was given one time per os two hours after the infection, and, from the survival rate after one week. 50% effective doses (ED50) were calculated by the Behrens-Karber method.

[21] = tested on: Pseudomonas aeruginosa E-2; experiment: as above; format: in vivo, ddY strain mice; details: E2, po; Pseudomonas aeruginosa E-2, 2 × 10^5 per mouse; one dose per os 2 h after infection; Behrens-Karber
Procedure: as §3

[22] = Acute toxicity; details: mouse, in vivo; oral, groups of ten ddY male mice; read-out: 50% Lethal Doses (LD50)
Procedure: Groups of ten ddY strain male mice (body weights: 20±1 grams) of the test compound were orally administered to determine the LD50. There was […] in which many mice died when the dose was 2000 mg/kg or less.

[23] = tested on: Acimetobacter calcoaceticus; experiment: Mouse intraperitoneal infection, survival after one week; format: in vivo, ddY strain mice; details: po, 1 × 10^7 per mouse, one dose per os 2 h after infection
Procedure: as §3

[24] = tested on: Klebsiella pneumoniae K-1966; experiment: as above; format: in vivo, ddY strain mice; details: K1966, po; Klebsiella pneumoniae K-1966, 3 × 10^3 per mouse; one dose per os 2 h after infection
Procedure: as §3

## CN1CCN(c2cc3c(cc2F)c(=O)c(C(=O)O)c2sccn23)CC1 [Example 14, 7-fluoro-8-(4-methyl-1-piperazinyl)-5-oxo-5H-thiazolo(3,2-a)-quinoline-4-carboxylic acid]
[1]
  MIC: 0.0063 µg/mL (≈ 0.0174 µM)
[2]
  MIC: 0.2 µg/mL (≈ 0.553 µM)
[3]
  MIC: 0.2 µg/mL (≈ 0.553 µM)
[4]
  MIC: 0.39 µg/mL (≈ 1.08 µM)
[5]
  MIC: 0.78 µg/mL (≈ 2.16 µM)
[6]
  MIC: 0.013 µg/mL (≈ 0.036 µM)
[7]
  MIC: 0.1 µg/mL (≈ 0.277 µM)
[8]
  MIC: 0.1 µg/mL (≈ 0.277 µM)
[9]
  MIC: 1.56 µg/mL (≈ 4.32 µM)
[10]
  MIC: 0.78 µg/mL (≈ 2.16 µM)
[11]
  MIC: 0.013 µg/mL (≈ 0.036 µM)
[12]
  MIC: 0.0063 µg/mL (≈ 0.0174 µM)
[13]
  MIC: 0.39 µg/mL (≈ 1.08 µM)
[14]
  MIC: 0.39 µg/mL (≈ 1.08 µM)
[15]
  MIC: 0.78 µg/mL (≈ 2.16 µM)
[16]
  MIC: 0.025 µg/mL (≈ 0.0692 µM)
[17]
  MIC: 0.39 µg/mL (≈ 1.08 µM)
[18]
  MIC: 0.1 µg/mL (≈ 0.277 µM)
[19]
  MIC: 0.05 µg/mL (≈ 0.138 µM)
[20]
  ED50: 1.5 mg/kg
[21]
  ED50: 16 mg/kg
[22]
  LD50: > 2000 mg/kg

## C=CCN1CCN(c2cc3c(cc2F)c(=O)c(C(=O)O)c2sccn23)CC1 [Example 15, 8-(4-Allyl-1-piperazinyl)-7-fluoro-5-oxo-5H-thiazolo(3,2-a)-quinoline-4-carboxylic acid]
[1]
  MIC: 0.0063 µg/mL (≈ 0.0163 µM)
[2]
  MIC: 0.39 µg/mL (≈ 1.01 µM)
[3]
  MIC: 0.1 µg/mL (≈ 0.258 µM)
[4]
  MIC: 0.39 µg/mL (≈ 1.01 µM)
[5]
  MIC: 0.78 µg/mL (≈ 2.01 µM)
[6]
  MIC: 0.05 µg/mL (≈ 0.129 µM)
[7]
  MIC: 0.2 µg/mL (≈ 0.516 µM)
[8]
  MIC: 0.05 µg/mL (≈ 0.129 µM)
[9]
  MIC: 0.39 µg/mL (≈ 1.01 µM)
[10]
  MIC: 1.56 µg/mL (≈ 4.03 µM)
[11]
  MIC: 0.2 µg/mL (≈ 0.516 µM)
[12]
  MIC: 0.05 µg/mL (≈ 0.129 µM)
[13]
  MIC: 1.56 µg/mL (≈ 4.03 µM)
[14]
  MIC: 0.78 µg/mL (≈ 2.01 µM)
[15]
  MIC: 1.56 µg/mL (≈ 4.03 µM)
[16]
  MIC: 0.0063 µg/mL (≈ 0.0163 µM)
[17]
  MIC: 0.39 µg/mL (≈ 1.01 µM)
[18]
  MIC: 0.025 µg/mL (≈ 0.0645 µM)
[19]
  MIC: 0.013 µg/mL (≈ 0.0336 µM)
[23]
  ED50: > 35 mg/kg
[20]
  ED50: 2 mg/kg
[24]
  ED50: 3.3 mg/kg
[21]
  ED50: 10.7 mg/kg
[22]
  LD50: > 2000 mg/kg

## Cc1csc2c(C(=O)O)c(=O)c3cc(F)c(N4CCNCC4)cc3n12 [Example 21, 7-fluoro-1-methyl-5-oxo-8-(1-piperazinyl)-5H-thiazolo(3,2-a)-quinoline-4-carboxylic acid]
[1]
  MIC: 0.0063 µg/mL (≈ 0.0174 µM)
[2]
  MIC: 0.2 µg/mL (≈ 0.553 µM)
[3]
  MIC: 0.1 µg/mL (≈ 0.277 µM)
[4]
  MIC: 0.2 µg/mL (≈ 0.553 µM)
[5]
  MIC: 0.78 µg/mL (≈ 2.16 µM)
[6]
  MIC: 0.0063 µg/mL (≈ 0.0174 µM)
[7]
  MIC: 0.025 µg/mL (≈ 0.0692 µM)
[8]
  MIC: 0.013 µg/mL (≈ 0.036 µM)
[9]
  MIC: 0.2 µg/mL (≈ 0.553 µM)
[10]
  MIC: 0.39 µg/mL (≈ 1.08 µM)
[11]
  MIC: 0.05 µg/mL (≈ 0.138 µM)
[12]
  MIC: 0.0016 µg/mL (≈ 0.00443 µM)
[13]
  MIC: 0.39 µg/mL (≈ 1.08 µM)
[14]
  MIC: 0.39 µg/mL (≈ 1.08 µM)
[15]
  MIC: 0.2 µg/mL (≈ 0.553 µM)
[16]
  MIC: 0.013 µg/mL (≈ 0.036 µM)
[17]
  MIC: 0.2 µg/mL (≈ 0.553 µM)
[18]
  MIC: 0.025 µg/mL (≈ 0.0692 µM)
[19]
  MIC: 0.013 µg/mL (≈ 0.036 µM)
[22]
  LD50: > 2000 mg/kg
